In patent US20250304623A1, “PEPTIDES FOR INTRACELLULAR DELIVERY” (UNIVERSIDADE DE SANTIAGO DE COMPOSTELA, priority 2022, published 2025):
*: point of attachment. NHNH2 = NN*

Columns and labels:
Type in all cases: cell-based
Hela cells = assay: EGFP mRNA delivery, robotic library screening, HeLa
Description: Cells were seeded in a 96 well plate the day before the experiment at a concentration of 50,000 cell/mL (100 μL/w) in DMEM+10% FBS+1% Gln-Abt. For robotic library screening, the delivery of EGFP-mRNA (from TriLink, fully substituted with 5-methoxyuridine, capped and polyadenylated; TriLink, CleanCap® EGFP mRNA (5moU), ref. L-7201) in six different cell lines was performed. Amphiphilic molecule stock solutions were prepared in DMSO as described above and diluted in DMEM to afford a range of concentrations. The solutions of EGFP-mRNA/amphiphilic molecule complexes were freshly prepared prior to the transfection experiments. 35 μL of the corresponding amphiphile were added to 10 μL of a solution of EGFP-mRNA at 10 ng/μL in DMEM. The mixture was shaken for 30 min at room temperature before the addition to the cells. The cell medium was aspirated, and cells were washed with PBS twice. Cells were covered with 39 μL of DMEM and 11 μL of the complex's solution were added to the cells and incubated for 4 h (final concentration of peptide=2.5, 5 and 10 μM; final concentration of EGFP-mRNA=25 ng/well). After the incubation, the medium was replaced by 100 μL of fresh DMEM supplemented with 10% FBS. The total EGFP fluorescence was quantified after 72 h in a well plate reader. Amphiphile transfection efficiency was compared and normalized to Lipofectamine® MessengerMax efficiency (value of 1 in Tables 1-5 and 7; double underlined numbers). All experiments were done in triplicate.
(§1) Tables 1-7: RLuc (pDNA) or EGFP (mRNA) expression levels were normalized to Lipofectamine reagents (value=1) and expressed as fold-times signal increase. In the case of siRNA, the siRNA treated cells fluorescence was compared with siMOCK control fluorescence, while Cas9-RNP mediated knockout was measured against the fluorescence of untreated cells. In both siRNA and Cas9-RNP, values are expressed as % fluorescence reduction. Amphiphile concentration was 5 μM in all cases. All experiments were performed in triplicate.
Tables 14-19 show the mean (triplicates) fluorescence intensity measured after the transfection of EGFP mRNA by different amphiphiles at different concentrations in a variety of cell lines. Background fluorescence values, accounted by untreated control cells, were subtracted for processing.

[1] = test system: ARPE19 cells expressing EGFP; assay: EGFP-targeting siRNA delivery (GFP silencing vs siMOCK), ARPE19
Description: (§2) To generate an EGFP expressing HeLa cell line, HeLa cells were transfected with EGFP pDNA (pEGFP-C1, Clontech) and stable transfectants were selected with 400 μg/mL of G-418 (Millipore). Green clones were selected by epifluorescence microscopy and tested for EGFP expression stability through several passages. […] All other EGFP-expressing cell lines were obtained in a similar way from parent non-EGFP-expressing cell lines.
Cells expressing EGFP were seeded in a 96 well plate the day before the experiment at a concentration of 50,000 cell/mL (100 μL/w) in DMEM+10% FBS+1% Gln-Abt. For robotic library screening, the delivery of an EGFP-targeting siRNA (EGFP: enhanced green fluorescent protein, Ambion® Silencer® GFP Positive Control siRNA (siGFP) (AM4626)) in six different cell lines expressing EGFP was performed. […] The mixture was shaken for 30 min at room temperature (rt) before the addition to the cells. The cell medium was aspirated, and cells were washed twice with PBS. Finally, 50 μL of the solution of siRNA/amphiphile complexes were added to the cells and incubated for 4 h. After transfection, the medium was replaced by 100 μL of fresh DMEM supplemented with 10% FBS. The fluorescence knockdown was quantified after 72 h in a plate reader, by comparison with cells transfected with a non-targeting siRNA control (siMOCK, Silencer™ Negative Control No. 1 siRNA (siMOCK) (AM4611)). EGFP knockdown was compared with Lipofectamine® RNAiMAX silencing efficiency (30-60% depending on cell line, defined with a numeric value in the below tables). All experiments were done in triplicate.
as §1
Tables 20-25 show the mean (triplicates) percentage of GFP-silencing, accounted by fluorescence intensity decrease relative to a non-targeting siRNA (siMOCK) control, measured after the transfection of siRNA by different amphiphiles at different concentrations in a variety of cell lines. Background values, accounted by untreated control cells, were subtracted for processing.

[2] = test system: HepG2 cells expressing EGFP; assay: Cas9-RNP delivery against EGFP (gene editing, plate reader), HepG2
Description: as §2
Cells expressing EGFP were seeded in a 96 well plate the day before the experiment at a concentration of 50,000 cell/mL (100 μL/w) in DMEM+10% FBS+1% Gln-Abt. For robotic library screening, the delivery of Cas9-RNP against EGFP (RNP designed to knock-out the gene encoding for the enhanced green fluorescent protein (EGFP)) was performed. For RNP assembly, 9.2 μL of crRNA and 9.2 μL of tracrRNA were mixed in 211.6 μL of Nuclease-Free Duplex Buffer (IDT), incubated for 5 min at 95° C. and slowly cooled at rt (see I. Lostalé-Seijo, et al. Peptide/Cas9 nanostructures for ribonucleoprotein cell membrane transport and gene edition, Chem. Sci., 2017). Cas9 protein was dissolved in DMEM at a final concentration of 4 μM and equal volumes of the RNA complex and Cas9 were mixed and incubated for 5 min at rt. 75 μL of the corresponding amphiphile concentrations were added to 5 μL of RNP at 2 μM. The mixture was shaken for 30 min at room temperature before the addition to the cells. The cell medium was aspirated, and cells were washed twice with PBS. Cells were covered with 30 μL of DMEM and 20 μL of the RNP/amphiphile complexes were added to the cells (final peptide concentrations=2.5, 5 and 10 μM; final Cas9-RNP concentration=50 nM) and incubated for 4 h. After the incubation, the medium was replaced by 100 μL of fresh DMEM supplemented with 10% FBS. The total EGFP fluorescence was quantified after 72 h in a plate reader (FIG. 2, Table 1 (right) and Table 6). All experiments were done in triplicate. […]
Tables 26-31 show the mean (triplicates) percentage of gene editing, accounted by GFP fluorescence intensity decrease (% of reduction), measured after the transfection of Cas9-RNP by different amphiphiles at different concentrations in a variety of cell lines. Background values, accounted by untreated control cells, were subtracted for processing.

Row | Substance | mean fluorescence intensity (EGFP mRNA) (Hela cells; HeLa, Dodecanal, 2.5 μM) | mean fluorescence intensity (EGFP mRNA) (Hela cells; HeLa, Dodecanal, 5 μM) | mean fluorescence intensity (EGFP mRNA) (Hela cells; HeLa, Myristoleyl, 2.5 μM) | mean fluorescence intensity (EGFP mRNA) (Hela cells; Hela, Dodecanal, 10 μM) | mean fluorescence intensity (EGFP mRNA) (Hela cells; Hela, Myristoleyl, 10 μM) | percentage of GFP-silencing relative to siMOCK ([1]; Dodecanal, 5 μM) | percentage of GFP-silencing relative to siMOCK ([1]; Dodecanal, 10 μM) | percentage of GFP-silencing relative to siMOCK ([1]; Dodecanal, 15 μM) | percentage of gene editing, GFP fluorescence intensity decrease (% of reduction) ([2]; Dodecanal, 5 μM) | percentage of gene editing, GFP fluorescence intensity decrease (% of reduction) ([2]; Dodecanal, 10 μM) | percentage of gene editing, GFP fluorescence intensity decrease (% of reduction) ([2]; Dodecanal, 15 μM) | percentage of gene editing, GFP fluorescence intensity decrease (% of reduction) ([2]; Myristoleyl, 5 μM) | percentage of gene editing, GFP fluorescence intensity decrease (% of reduction) ([2]; Myristoleyl, 10 μM) | percentage of gene editing, GFP fluorescence intensity decrease (% of reduction) ([2]; Myristoleyl, 15 μM) | also measured
1 | Ac-RK*LRK*K*L-NH2 (Ac-RK(NHNH2)LRK(NHNH2)K(NHNH2)L-NH2; not fully specified; printed as Ac-RK*LRK*K*L-NH2; also: K*2,K*5,K*6: native or modified lysine (ε-amide to a linker)) [Peptide 7.3] | 6327 | 4738 | 13591 | 572 | 647 | 15% | 35% | 45% | −21% | −24% | −29% | −19% | −20% | −14% | mean fluorescence intensity (EGFP mRNA) (Hela cells; HeLa, Oleyl, 5 μM): 501; mean fluorescence intensity (EGFP mRNA) (Hela cells; HeLa, Petroselinyl, 2.5 μM): 9039; mean fluorescence intensity (EGFP mRNA) (Hela cells; HeLa, Petroselinyl, 10 μM): 732; mean fluorescence intensity (EGFP mRNA) (Hela cells; Hela, Palmitoleyl, 10 μM): 189; percentage of GFP-silencing relative to siMOCK ([1]; Palmitoleyl, 15 μM): −5%; percentage of gene editing, GFP fluorescence intensity decrease (% of reduction) ([2]; Oleyl, 5 μM): −7%; percentage of gene editing, GFP fluorescence intensity decrease (% of reduction) ([2]; Oleyl, 10 μM): −3%; percentage of gene editing, GFP fluorescence intensity decrease (% of reduction) ([2]; Oleyl, 15 μM): −1%; percentage of gene editing, GFP fluorescence intensity decrease (% of reduction) ([2]; Palmitoleyl, 5 μM): −14%; percentage of gene editing, GFP fluorescence intensity decrease (% of reduction) ([2]; Palmitoleyl, 10 μM): −14%; percentage of gene editing, GFP fluorescence intensity decrease (% of reduction) ([2]; Palmitoleyl, 15 μM): −4%; percentage of gene editing, GFP fluorescence intensity decrease (% of reduction) ([2]; Petroselinyl, 10 μM): −1%
2 | Ac-RK*LRRK*L-NH2 (Ac-RK(NHNH2)LRRK(NHNH2)L-NH2; not fully specified; printed as Ac-RK*LRRK*L-NH2; also: K*2,K*6: native or modified lysine (ε-amide to a linker)) [Peptide 7.2] | 268 | 341 | 5194 | 288 | 358 | 4% | 10% | 20% | −23% | −56% | −47% | −42% | −40% | −21% | mean fluorescence intensity (EGFP mRNA) (Hela cells; Hela, Myristoleyl, 5 μM): 654; percentage of GFP-silencing relative to siMOCK ([1]; Myristoleyl, 5 μM): 14%; percentage of GFP-silencing relative to siMOCK ([1]; Myristoleyl, 10 μM): 28%
